Test results: patent US20230301300A1, “HERBICIDAL COMPOSITIONS” (SYNGENTA CROP PROTECTION AG, priority 2020, published 2023)

Experiments:
Test in all cases: B2 Post-Emergence Efficacy - Test 2
Format in all cases: in vivo
Avena fatua (AVEFA) = settings: 15 days after application, 0-100 scale
Procedure, shortened: (§1)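 Herbicidal effect was rated visually from 0 (no damage) to 100 (complete kill) fifteen days after treatment. Seedlings had been raised for 12 days under controlled glasshouse conditions and then sprayed with the active ingredient formulated in IF50, diluted in water with 0.2% v/v Genapol X080 adjuvant.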

Bidens pilosa (BIDPI) = settings: 15 days after application, 0-100 scale
Procedure, shortened: as §1

[1] = system: Brachiaria plantaginea (BRAPL); settings: 15 days after application, 0=no damage, 100=total kill
Procedure, shortened: as §1

Brassica napus (BRSNN) = settings: 15 days after application, 0-100 scale
Procedure, shortened: as §1

[2] = system: Chenopodium album (CHEAL); settings: 15 days after application, 0-100 scale
Procedure, shortened: as §1

[3] = system: Digitaria sanguinalis (DIGSA); settings: 15 days after application, 0=no damage, 100=total kill
Procedure, shortened: as §1

[4] = system: Euphorbia hetrophylla (EPHHL); settings: 15 days after application, 0-100 scale
Procedure, shortened: as §1

Galium aparine (GALAP) = settings: 15 days after application, 0-100 scale
Procedure, shortened: as §1

[5] = system: Ipomoea hederacea (IPOHE); settings: 15 days after application, 0-100 scale
Procedure, shortened: as §1

Kochia scoparia (KSHSC) = settings: 15 days after application, 0-100 scale
Procedure, shortened: as §1

Orysa sativa (ORYSA) = settings: 15 days after application; for Herbicidal activity ORYSA: 0-100 scale; for Herbicidal activity on a 0-100 scale, ORYSA: 0=no damage, 100=total kill
Procedure, shortened: as §1

[6] = system: Panicum miliaceum (PANMI); settings: 15 days after application, 0=no damage, 100=total kill
Procedure, shortened: as §1

Poa annua (POAAN) = settings: 15 days after application, 0-100 scale
Procedure, shortened: as §1

Sinapis arvensis (SINAR) = settings: 15 days after application, 0-100 scale
Procedure, shortened: as §1

Sorghum bicolour (SORVU) = settings: 15 days after application, 0=no damage, 100=total kill
Procedure, shortened: as §1

Stellaria media (STEME) = settings: 15 days after application, 0-100 scale
Procedure, shortened: as §1

[7] = system: Triticum aestivum (TRZAW); settings: 15 days after application, 0-100 scale
Procedure, shortened: as §1

[8] = system: Xanthium strumarium (XANST); settings: 15 days after application, 0-100 scale
Procedure, shortened: as §1

Cc1nn(C)c(=O)c(-c2c(F)ccc(Cl)c2CCc2ccc(C#N)cc2)c1O [Compound 1.024, 4-[3-chloro-6-fluoro-2-[2-[4-(cyano)phenyl]ethyl]phenyl]-5-hydroxy-2,6-dimethyl-pyridazin-3-one]
Herbicidal activity AVEFA (Avena fatua (AVEFA); 15 g/Ha): 10 | Herbicidal activity AVEFA (Avena fatua (AVEFA); 30 g/Ha): 20 | Herbicidal activity AVEFA (Avena fatua (AVEFA); 60 g/Ha): 30 | Herbicidal activity AVEFA (Avena fatua (AVEFA); 125 g/Ha): 60 | Herbicidal activity AVEFA (Avena fatua (AVEFA); 250 g/Ha): 70 | Herbicidal activity AVEFA (Avena fatua (AVEFA); 500 g/Ha): 80 | Herbicidal activity BIDPI (Bidens pilosa (BIDPI); 15 g/Ha): 80 | Herbicidal activity BIDPI (Bidens pilosa (BIDPI); 30 g/Ha): 80 | Herbicidal activity BIDPI (Bidens pilosa (BIDPI); 60 g/Ha): 80 | Herbicidal activity BIDPI (Bidens pilosa (BIDPI); 125 g/Ha): 80 | Herbicidal activity BIDPI (Bidens pilosa (BIDPI); 250 g/Ha): 80 | Herbicidal activity BIDPI (Bidens pilosa (BIDPI); 500 g/Ha): 90 | Herbicidal activity on a 0-100 scale, BRAPL ([1]; 15 g/Ha): 30 | Herbicidal activity on a 0-100 scale, BRAPL ([1]; 30 g/Ha): 60 | Herbicidal activity on a 0-100 scale, BRAPL ([1]; 60 g/Ha): 70 | Herbicidal activity on a 0-100 scale, BRAPL ([1]; 125 g/Ha): 70 | Herbicidal activity on a 0-100 scale, BRAPL ([1]; 250 g/Ha): 70 | Herbicidal activity on a 0-100 scale, BRAPL ([1]; 500 g/Ha): 90 | Herbicidal activity BRSNN (Brassica napus (BRSNN); 15 g/Ha): 80 | Herbicidal activity BRSNN (Brassica napus (BRSNN); 30 g/Ha): 90 | Herbicidal activity BRSNN (Brassica napus (BRSNN); 60 g/Ha): 90 | Herbicidal activity BRSNN (Brassica napus (BRSNN); 125 g/Ha): 90 | Herbicidal activity BRSNN (Brassica napus (BRSNN); 250 g/Ha): 90 | Herbicidal activity BRSNN (Brassica napus (BRSNN); 500 g/Ha): 90 | Herbicidal activity CHEAL ([2]; 15 g/Ha): 60 | Herbicidal activity CHEAL ([2]; 30 g/Ha): 90 | Herbicidal activity CHEAL ([2]; 60 g/Ha): 90 | Herbicidal activity CHEAL ([2]; 125 g/Ha): 90 | Herbicidal activity CHEAL ([2]; 250 g/Ha): 90 | Herbicidal activity CHEAL ([2]; 500 g/Ha): 100 | Herbicidal activity on a 0-100 scale, DIGSA ([3]; 15 g/Ha): 0 | Herbicidal activity on a 0-100 scale, DIGSA ([3]; 30 g/Ha): 20 | Herbicidal activity on a 0-100 scale, DIGSA ([3]; 60 g/Ha): 40 | Herbicidal activity on a 0-100 scale, DIGSA ([3]; 125 g/Ha): 80 | Herbicidal activity on a 0-100 scale, DIGSA ([3]; 250 g/Ha): 90 | Herbicidal activity on a 0-100 scale, DIGSA ([3]; 500 g/Ha): 90 | Herbicidal activity EPHHL ([4]; 15 g/Ha): 70 | Herbicidal activity EPHHL ([4]; 30 g/Ha): 90 | Herbicidal activity EPHHL ([4]; 60 g/Ha): 90 | Herbicidal activity EPHHL ([4]; 125 g/Ha): 90 | Herbicidal activity EPHHL ([4]; 250 g/Ha): 100 | Herbicidal activity EPHHL ([4]; 500 g/Ha): 100 | Herbicidal activity GALAP (Galium aparine (GALAP); 30 g/Ha): 20 | Herbicidal activity GALAP (Galium aparine (GALAP); 60 g/Ha): 20 | Herbicidal activity GALAP (Galium aparine (GALAP); 125 g/Ha): 60 | Herbicidal activity GALAP (Galium aparine (GALAP); 250 g/Ha): 90 | Herbicidal activity GALAP (Galium aparine (GALAP); 500 g/Ha): 90 | Herbicidal activity IPOHE ([5]; 30 g/Ha): 100 | Herbicidal activity IPOHE ([5]; 60 g/Ha): 100 | Herbicidal activity IPOHE ([5]; 125 g/Ha): 100 | Herbicidal activity IPOHE ([5]; 250 g/Ha): 100 | Herbicidal activity IPOHE ([5]; 500 g/Ha): 100 | Herbicidal activity KCHSC (Kochia scoparia (KSHSC); 15 g/Ha): 0 | Herbicidal activity KCHSC (Kochia scoparia (KSHSC); 30 g/Ha): 0 | Herbicidal activity KCHSC (Kochia scoparia (KSHSC); 60 g/Ha): 0 | Herbicidal activity KCHSC (Kochia scoparia (KSHSC); 125 g/Ha): 10 | Herbicidal activity KCHSC (Kochia scoparia (KSHSC); 250 g/Ha): 10 | Herbicidal activity KCHSC (Kochia scoparia (KSHSC); 500 g/Ha): 20 | Herbicidal activity ORYSA (Orysa sativa (ORYSA); 15 g/Ha): 0 | Herbicidal activity on a 0-100 scale, ORYSA (Orysa sativa (ORYSA); 15 g/Ha): 0 | Herbicidal activity ORYSA (Orysa sativa (ORYSA); 30 g/Ha): 0 | Herbicidal activity on a 0-100 scale, ORYSA (Orysa sativa (ORYSA); 30 g/Ha): 0 | Herbicidal activity ORYSA (Orysa sativa (ORYSA); 60 g/Ha): 0 | Herbicidal activity on a 0-100 scale, ORYSA (Orysa sativa (ORYSA); 60 g/Ha): 0 | Herbicidal activity ORYSA (Orysa sativa (ORYSA); 125 g/Ha): 0 | Herbicidal activity on a 0-100 scale, ORYSA (Orysa sativa (ORYSA); 125 g/Ha): 0 | Herbicidal activity ORYSA (Orysa sativa (ORYSA); 250 g/Ha): 20 | Herbicidal activity on a 0-100 scale, ORYSA (Orysa sativa (ORYSA); 250 g/Ha): 20 | Herbicidal activity ORYSA (Orysa sativa (ORYSA); 500 g/Ha): 40 | Herbicidal activity on a 0-100 scale, ORYSA (Orysa sativa (ORYSA); 500 g/Ha): 40 | Herbicidal activity on a 0-100 scale, PANMI ([6]; 15 g/Ha): 0 | Herbicidal activity on a 0-100 scale, PANMI ([6]; 30 g/Ha): 70 | Herbicidal activity on a 0-100 scale, PANMI ([6]; 60 g/Ha): 80 | Herbicidal activity on a 0-100 scale, PANMI ([6]; 125 g/Ha): 90 | Herbicidal activity on a 0-100 scale, PANMI ([6]; 250 g/Ha): 90 | Herbicidal activity on a 0-100 scale, PANMI ([6]; 500 g/Ha): 100 | Herbicidal activity POAAN (Poa annua (POAAN); 15 g/Ha): 10 | Herbicidal activity POAAN (Poa annua (POAAN); 30 g/Ha): 20 | Herbicidal activity POAAN (Poa annua (POAAN); 60 g/Ha): 30 | Herbicidal activity POAAN (Poa annua (POAAN); 125 g/Ha): 80 | Herbicidal activity POAAN (Poa annua (POAAN); 250 g/Ha): 80 | Herbicidal activity POAAN (Poa annua (POAAN); 500 g/Ha): 90 | Herbicidal activity SINAR (Sinapis arvensis (SINAR); 15 g/Ha): 80 | Herbicidal activity SINAR (Sinapis arvensis (SINAR); 30 g/Ha): 80 | Herbicidal activity SINAR (Sinapis arvensis (SINAR); 60 g/Ha): 80 | Herbicidal activity SINAR (Sinapis arvensis (SINAR); 250 g/Ha): 90 | Herbicidal activity SINAR (Sinapis arvensis (SINAR); 500 g/Ha): 100 | Herbicidal activity on a 0-100 scale, SORVU (Sorghum bicolour (SORVU); 15 g/Ha): 0 | Herbicidal activity on a 0-100 scale, SORVU (Sorghum bicolour (SORVU); 30 g/Ha): 10 | Herbicidal activity on a 0-100 scale, SORVU (Sorghum bicolour (SORVU); 60 g/Ha): 70 | Herbicidal activity on a 0-100 scale, SORVU (Sorghum bicolour (SORVU); 125 g/Ha): 80 | Herbicidal activity on a 0-100 scale, SORVU (Sorghum bicolour (SORVU); 250 g/Ha): 90 | Herbicidal activity on a 0-100 scale, SORVU (Sorghum bicolour (SORVU); 500 g/Ha): 100 | Herbicidal activity STEME (Stellaria media (STEME); 15 g/Ha): 90 | Herbicidal activity STEME (Stellaria media (STEME); 30 g/Ha): 90 | Herbicidal activity STEME (Stellaria media (STEME); 60 g/Ha): 90 | Herbicidal activity STEME (Stellaria media (STEME); 125 g/Ha): 90 | Herbicidal activity STEME (Stellaria media (STEME); 250 g/Ha): 90 | Herbicidal activity STEME (Stellaria media (STEME); 500 g/Ha): 100 | Herbicidal activity TRZAW ([7]; 15 g/Ha): 0 | Herbicidal activity TRZAW ([7]; 30 g/Ha): 0 | Herbicidal activity TRZAW ([7]; 60 g/Ha): 20 | Herbicidal activity TRZAW ([7]; 125 g/Ha): 30 | Herbicidal activity TRZAW ([7]; 250 g/Ha): 60 | Herbicidal activity TRZAW ([7]; 500 g/Ha): 70 | Herbicidal activity XANST ([8]; 60 g/Ha): 80 | Herbicidal activity XANST ([8]; 125 g/Ha): 80 | Herbicidal activity XANST ([8]; 500 g/Ha): 100
